Publication PMC5983471 (PLoS ONE, 2018)
In brackets after ≈: the same amount, converted by molar mass. Several values for one entry are separate records, joined by “and”; a condition that tells them apart may be missing. Equal values may be shown once. Entries after “also recorded” stand apart in the source; their conditions may differ. Read-outs that look alike come from different tables or passages of the source.

Legend:
[1] = Plasma niclosamide pharmacokinetics (LCMS, non-compartmental analysis); assay type: in vivo, human
Description: Blood for pharmacokinetic analyses were drawn at the following time points after the first dose: 0.5 hr, 1 hr, 1.5 hr, 2 hr, 3 hr, 4 hr, 6 hr, 8 hr and on Day 15. […] After vortexing, the samples were centrifuged at 20000 x G for 10 minutes at 4°C. The supernatant was transferred to a 96-well plate and 2 μL were injected on the liquid chromatography mass spectrometry (LCMS) system. The LCMS system was an ultrapressure liquid chromatography (Agilent (Santa Clara, CA) 1290 series) coupled to an Agilent G6410B triple-quadrupole mass spectrometer. The column was an Agilent Zorbax SB-C18 2.1 mm x 150 mm x 5μ maintained at 45°C. Mobile phase A was 10 mM ammonium formate (pH = 3) and mobile phase B was acetonitrile in the ratio of 35% A: 65% B at 0.4 mL/min.

[2] = rats; ref 62 (S1 Protocol, WHO/VBC/DS/88.63); cited from earlier work
metastatic CRPC (PSA) = test: On-study PSA changes; assay type: in vivo, human
Description: The primary objective was to assess safety.

[3] = test system: AR-V7 prostate cancer models; design: method as in ref 28,29 (S1 Protocol); conditions: combined with enzalutamide or abiraterone; ref 28,29 (S1 Protocol); cited from earlier work
[4] = ref 27,71 (S1 Protocol); cited from earlier work
[5] = test system: AR-V7 prostate cancer models; design: method as in ref 28 (S1 Protocol, Liu et al, 2014); conditions: in vitro, 48 hours exposure; ref 28 (S1 Protocol, Liu et al, 2014); cited from earlier work
[6] = test system: abiraterone and/or enzalutamide-resistant models, including AR-V7+ cell lines; conditions: cited from earlier work
[7] = published pharmacokinetics data; cited from earlier work
[8] = test system: enzalutamide-resistant LNCaP cells engineered to maintain Stat3 activation; conditions: cited from earlier work
[9] = test system: enzalutamide-resistant, AR-V7+ C4-2B cells; conditions: co-cultured with 81.8 ng/mL; cited from earlier work
[10] = prior experience; ref 27,60 (S1 Protocol); cited from earlier work
DU145 = conditions: cited from earlier work
[11] = Phase I dose-escalation: adverse events and dose-limiting toxicities (CTCAE v4.0)
Description: All patients were required to have mCRPC (i.e., disease progression in spite of serum testosterone ≤50 ng/dL) and had received prior abiraterone. Patients were originally required to have detectable AR-V transcripts in circulating tumor cells (CTC) as determined using the AdnaTest assay[9]. […] The primary objective was to assess safety.
We utilized the continual reassessment method (CRM) to evaluate dose-related toxicities and to determine the recommended Phase II dose[37]. We targeted a maximum of 30% of patients incurring dose-limiting toxicities (DLT) up to 30 days after the final (day-28) dose. […] Adverse events (AEs) were documented by incidence and their severity was graded according to the National Cancer Institute–Common Terminology Criteria for Adverse Events (CTCAE) version 4.0. The pharmacokinetic data underwent non-compartmental analysis using Phoenix WinNonlin version 8.0 (Certara USA, Inc; Princeton, NJ), and key pharmacokinetic parameters (e.g., Cmax, Cmin, Css and t1/2) were extracted.

AR-V7+ CWR22Rv1 cells = conditions: 81.8 ng/mL; cited from earlier work
[12] = first dose 500 mg PO, plasma, individual patients Pt# 1, 17, 18
[13] = first dose 500 mg PO, Pt# 1, 17, 18
[14] = first dose 1000 mg PO, plasma, individual patients Pt# 19, 20
[15] = first dose 1000 mg PO, Pt# 19, 20
[16] = AE possibly/probably related, 500 mg PO TID + enzalutamide, Pt# 1, 17, 18
[17] = AE possibly/probably related, 1000 mg PO TID + enzalutamide, Pt# 19, 20

Q: For `O=C(Nc1ccc([N+](=O)[O-])cc1Cl)c1cc(Cl)ccc1O` [niclosamide, 2',5-dichloro-4'-nitrosalicylanilide], which “patients achieving a Cmax ≥163.5 ng/mL” value ([1]; 500 mg PO TID cohort) is on record?
A: one of three

Q: And the “patients achieving a Cmax ≥163.5 ng/mL” value ([1]; 1000 mg PO TID cohort)?
A: one of two

Q: And the Cmax [1, 12]?
A: 35.7 ng/mL and 88.3 ng/mL

Q: What about the Tmax [1, 12] of the same compound?
A: 6 h and 2 h and 1 h

Q: And the “% of AUC0-∞ extrapolated” value [1, 13]?
A: 26.6% and 13.7% and 17.2%

Q: What about the Cmin [1, 13] of the same compound?
A: 13.3 ng/mL and 6.92 ng/mL and 7.42 ng/mL

Q: And the Tmin [1, 13]?
A: 4 h and 8 h

Q: What about the Cmax [1, 14] of the same compound?
A: 149 ng/mL

Q: What about the Tmax [1, 14] of the same compound?
A: 1 h and 6 h

Q: What about the “First dose AUC0-∞” value ([1]; first dose 1000 mg PO, Clast/elimination rate constant used for extrapolation, Pt# 19, 20) of the same compound?
A: 986 ng·h/mL

Q: What about the “% of AUC0-∞ extrapolated” value [1, 15] of the same compound?
A: 36.0% and 36.2%

Q: And the “Apparent oral clearance (clearance divided by fraction absorbed)” value [1, 15]?
A: 14.9 L/hr per kg of IBW

Q: And the Cmin [1, 15]?
A: 45.5 ng/mL and 90.0 ng/mL

Q: And the “First dose AUC0-τ” value [1, 15]?
A: 629 ng·h/mL

Q: And the Tmin [1, 15]?
A: 8 h

Q: And the Cmax ([1]; human, plasma, po, 1000 mg, first dose 1000 mg PO, plasma, individual patients Pt# 19, 20, read-out: Cmax)?
A: 182 ng/mL

Q: What about the AUC(0-inf) ([1]; human, plasma, po, 1000 mg, first dose 1000 mg PO, Clast/elimination rate constant used for extrapolation, Pt# 19, 20, read-out: First dose AUC0-∞) of the same compound?
A: 1060 ng·h/mL

Q: And the CL/F ([1]; human, plasma, po, 1000 mg, first dose 1000 mg PO, Pt# 19, 20, read-out: Apparent oral clearance (clearance divided by fraction absorbed) (converted))?
A: 203 mL/min/kg

Q: And the AUC ([1]; human, plasma, po, 1000 mg, first dose 1000 mg PO, Pt# 19, 20, read-out: First dose AUC0-τ)?
A: 676 ng·h/mL

Q: What about the CL/F ([1]; male, human, plasma, po, 1000 mg, all 5 patients, 500 and 1000 mg cohorts, read-out: apparent oral clearance (CL/F), range over patients) of the same compound?
A: 152 to 630 mL/min/kg

Q: And the “oral LD50” value [2]?
A: > 5,000 mg/kg body weight

Q: And the “PSA Day 29” value (metastatic CRPC (PSA); 1000 mg PO TID + enzalutamide, Pt# 19)?
A: 3009.49 ng/mL

Q: What about the “PSA Change (%)” value (metastatic CRPC (PSA); Day 1 to Day 29, 1000 mg PO TID + enzalutamide, Pt# 19) of the same compound?
A: 101.7%

Q: What about the PSA declines (metastatic CRPC (PSA); all dose cohorts, niclosamide + enzalutamide) of the same compound?
A: no PSA declines; also recorded: no evidence for declining PSA

Q: What about the clinical activity (metastatic CRPC (PSA); any patient enrolled, niclosamide + enzalutamide) of the same compound?
A: no evidence of clinical activity

Q: What about the “anti-tumor effect of combination” value [3] of the same compound?
A: synergistic

Q: And the solubility in acetone [4]?
A: soluble

Q: And the “solubility in ethanol, chloroform, or ether” value [4]?
A: sparingly soluble

Q: What about the solubility in water [4] of the same compound?
A: almost insoluble

Q: What about the “lowest concentration inducing apoptosis / inhibiting cell line growth” value [5] of the same compound?
A: ≥ 0.25 µg/mL

Q: And the “concentrations that consistently inhibited cell growth” value [6]?
A: ≥ 163.5 ng/mL

Q: And the “lowest concentration inhibiting some AR-V7+ cell lines” value [6]?
A: ≥ 81.8 ng/mL

Q: What about the oral bioavailability [7] of the same compound?
A: poor oral bioavailability

Q: What about the “concentrations at which cells were growth inhibited” value [8] of the same compound?
A: ≥ 163.5 ng/mL

Q: What about the growth inhibition [9] of the same compound?
A: growth inhibited

Q: What about the “patients with gastrointestinal side effects (nausea, vomiting and stomach pain)” value [10] of the same compound?
A: ~ 10%

Q: What about the “IC50, decreased cell proliferation” value (DU145) of the same compound?
A: 0.33 µg/mL (≈ 1.01 µM)

Q: What about the “patients with any toxicities deemed at least possibly related to niclosamide” value ([11]; 500 mg PO TID cohort) of the same compound?
A: one out of three

Q: And the “dose-limiting toxicities (DLTs)” value ([11]; 500 mg PO TID cohort, 3 patients, + enzalutamide)?
A: no dose-limiting toxicities; also recorded: No DLTs observed

Q: What about the tolerability ([11]; 500 mg PO TID in combination with enzalutamide) of the same compound?
A: well tolerated

Q: What about the “Nausea (Grade)” value ([11]; AE possibly/probably related, 500 mg PO TID + enzalutamide 160 mg daily, Pt# 1, 17, 18) of the same compound?
A: 1 Grade

Q: What about the “Anorexia (Grade)” value [11, 16] of the same compound?
A: 1 Grade

Q: What about the “Weight loss (Grade)” value [11, 16] of the same compound?
A: 1 Grade

Q: And the “Nausea (Grade)” value ([11]; AE possibly/probably related, 1000 mg PO TID + enzalutamide 160 mg daily, Pt# 19, 20)?
A: 3 Grade and 3 ^* Grade and 2 Grade

Q: What about the “Abdominal pain (Grade)” value [11, 17] of the same compound?
A: 3 Grade

Q: What about the “Anorexia (Grade)” value [11, 17] of the same compound?
A: 1 Grade

Q: And the “Colitis (Grade)” value [11, 17]?
A: 3 Grade and 3 ^** Grade

Q: And the “Diarrhea (Grade)” value [11, 17]?
A: 3 Grade

Q: And the “Lipase elevation (Grade)” value [11, 17]?
A: 2 Grade

Q: And the “Vomiting (Grade)” value [11, 17]?
A: 3 Grade

Q: And the maximum tolerated dose ([11]; PO TID, in combination with enzalutamide 160 mg daily)?
A: 500 mg

Q: And the growth inhibition (AR-V7+ CWR22Rv1 cells)?
A: did not demonstrate significant growth inhibition
